The source made the active and inactive calls. The calls are words filed in the database; no cut-off is given here.
Tests used:
HepG2 [1] = assay: (§1) Inhibition of TGF-beta-induced human CTGF promoter activity transiently transfected in human HepG2 cells after 16 hrs by luciferase reporter assay; assay type: cell-based
[2] = as §1; assay type: cell-based; conditions: HepG2, 16 h
HepG2 [3] = assay: Inhibition of TGF-beta-induced human CTGF promoter activity transiently transfected in human HepG2 cells assessed as reduction in mmp2 expression preincubated at 680 nM for 1 hr before TGF-beta stimulation measured after 6 hrs by quantitative real-time PCR analysis; assay type: cell-based
[4] = (§2) Binding affinity to (AGCCAGACA)9-MLP element (unknown origin) transiently transfected in human HepG2 cells assessed as inhibition of TGF-beta-induced Smad-dependent transcriptional activity preincubated for 1 hr before TGF-beta stimulation measured after 16 hrs by luciferase reporter assay; assay type: cell-based
HepG2 [5] = assay: Inhibition of TGF-beta-induced human CTGF promoter activity transiently transfected in human HepG2 cells assessed as reduction in type 1 collagen alpha1 expression preincubated at 680 nM for 1 hr before TGF-beta stimulation measured after 6 hrs by quantitative real-time PCR analysis; assay type: cell-based
MDA-MB-231 [6] = assay: Antimigratory activity against human MDA-MB-231 cells assessed as reduction in formation of tubule-like structures at 136 nM after 16 hrs by matrigel assay relative to control; assay type: functional; parameters: scale not given: the % may be the effect or the level left
HepG2 [7] = assay: Inhibition of TGF-beta-induced human CTGF promoter activity transiently transfected in human HepG2 cells assessed as reduction in plasminogen activator inhibitor-1 expression preincubated at 680 nM for 1 hr before TGF-beta stimulation measured after 6 hrs by quantitative real-time PCR analysis; assay type: cell-based
HepG2 [8] = assay: Inhibition of TGF-beta-induced human CTGF promoter activity transiently transfected in human HepG2 cells assessed as reduction in alpha-smooth muscle actin expression preincubated at 680 nM for 1 hr before TGF-beta stimulation measured after 6 hrs by quantitative real-time PCR analysis; assay type: cell-based
HepG2 [9] = assay: Inhibition of TGF-beta-induced human CTGF promoter activity transiently transfected in human HepG2 cells assessed as CTGF protein expression preincubated at 407 nM for 1 hr before TGF-beta stimulation measured after 8 hrs by Western blot analysis; assay type: cell-based
HepG2 [10] = assay: Inhibition of TGF-beta-induced human CTGF promoter activity transiently transfected in human HepG2 cells assessed as reduction in tgf-beta expression preincubated at 680 nM for 1 hr before TGF-beta stimulation measured after 6 hrs by quantitative real-time PCR analysis; assay type: cell-based
HepG2 [11] = assay: Inhibition of TGF-beta-induced human CTGF promoter activity transiently transfected in human HepG2 cells assessed as CTGF expression preincubated at 680 nM for 1 hr before TGF-beta stimulation measured after 4 hrs by quantitative real-time PCR analysis; assay type: cell-based
MDA-MB-231 [12] = assay: Antimigratory activity against human MDA-MB-231 cells assessed as reduction in formation of tubule-like structures after 16 hrs by matrigel assay relative to control; assay type: functional, cell-based
MDA-MB-231 [13] = assay: Antimigratory activity against human MDA-MB-231 cells assessed as reduction in formation of tubule-like structures at 275 nM after 16 hrs by matrigel assay relative to untreated control; assay type: functional; parameters: scale not given: the % may be the effect or the level left
HepG2 [14] = assay: Inhibition of TGF-beta-induced human CTGF promoter activity transiently transfected in human HepG2 cells assessed as reduction in mmp2 expression preincubated at 3.2 uM for 1 hr before TGF-beta stimulation measured after 6 hrs by quantitative real-time PCR analysis; assay type: cell-based
HepG2 [15] = assay: Inhibition of TGF-beta-induced human CTGF promoter activity transiently transfected in human HepG2 cells assessed as reduction in tgf-beta expression preincubated at 3.2 uM for 1 hr before TGF-beta stimulation measured after 6 hrs by quantitative real-time PCR analysis; assay type: cell-based
HepG2 [16] = assay: Inhibition of TGF-beta-induced human CTGF promoter activity transiently transfected in human HepG2 cells assessed as CTGF protein expression preincubated at 3144 nM for 1 hr before TGF-beta stimulation measured after 8 hrs by Western blot analysis; assay type: cell-based
HepG2 [17] = assay: Cytotoxicity against human HepG2 cells at 3.2 uM after 48 hrs by XTT assay; assay type: cell-based; conditions: hepg2, 48 h
HepG2 [18] = assay: Inhibition of TGF-beta-induced human CTGF promoter activity transiently transfected in human HepG2 cells assessed as CTGF expression preincubated at 3.2 uM for 1 hr before TGF-beta stimulation measured after 4 hrs by quantitative real-time PCR analysis; assay type: cell-based
MDA-MB-231 [19] = assay: Antimigratory activity against human MDA-MB-231 cells assessed as reduction in formation of tubule-like structures at 2.4 uM after 16 hrs by matrigel assay relative to control; assay type: functional, cell-based
HepG2 [20] = assay: Inhibition of TGF-beta-induced human CTGF promoter activity transiently transfected in human HepG2 cells assessed as reduction in plasminogen activator inhibitor-1 expression preincubated at 3.2 uM for 1 hr before TGF-beta stimulation measured after 6 hrs by quantitative real-time PCR analysis; assay type: cell-based
HepG2 [21] = assay: Inhibition of TGF-beta-induced human CTGF promoter activity transiently transfected in human HepG2 cells assessed as reduction in type 1 collagen alpha1 expression preincubated at 3.2 uM for 1 hr before TGF-beta stimulation measured after 6 hrs by quantitative real-time PCR analysis; assay type: cell-based
HepG2 [22] = assay: Inhibition of TGF-beta-induced human CTGF promoter activity transiently transfected in human HepG2 cells assessed as reduction in alpha-smooth muscle actin expression preincubated at 3.2 uM for 1 hr before TGF-beta stimulation measured after 6 hrs by quantitative real-time PCR analysis; assay type: cell-based
HepG2 [23] = assay: as §2, with “activity measured as remaining activity” for “activity”, “preincubated at 2.2 uM” for “preincubated”; assay type: cell-based
MDA-MB-231 [24] = assay: Cytotoxicity against human MDA-MB-231 cells at 3.2 uM after 48 hrs by XTT assay; assay type: cell-based; conditions: mda-mb-231, 48 h
HepG2 [25] = assay: Inhibition of TGF-beta-induced human CTGF promoter activity transiently transfected in human HepG2 cells assessed as reduction in plasminogen activator inhibitor-1 expression preincubated at 700 nM for 1 hr before TGF-beta stimulation measured after 6 hrs by quantitative real-time PCR analysis; assay type: cell-based
MDA-MB-231 [26] = assay: Cytotoxicity against human MDA-MB-231 cells at 1.4 uM after 48 hrs by XTT assay; assay type: cell-based; conditions: mda-mb-231, 48 h
HepG2 [27] = assay: Inhibition of TGF-beta-induced human CTGF promoter activity transiently transfected in human HepG2 cells assessed as reduction in type 1 collagen alpha1 expression preincubated at 700 nM for 1 hr before TGF-beta stimulation measured after 6 hrs by quantitative real-time PCR analysis; assay type: cell-based
HepG2 [28] = assay: Inhibition of TGF-beta-induced human CTGF promoter activity transiently transfected in human HepG2 cells assessed as reduction in mmp2 expression preincubated at 700 nM for 1 hr before TGF-beta stimulation measured after 6 hrs by quantitative real-time PCR analysis; assay type: cell-based
HepG2 [29] = assay: Inhibition of TGF-beta-induced human CTGF promoter activity transiently transfected in human HepG2 cells assessed as reduction in tgf-beta expression preincubated at 700 nM for 1 hr before TGF-beta stimulation measured after 6 hrs by quantitative real-time PCR analysis; assay type: cell-based
HepG2 [30] = assay: Inhibition of TGF-beta-induced human CTGF promoter activity transiently transfected in human HepG2 cells assessed as CTGF protein expression preincubated at 714 nM for 1 hr before TGF-beta stimulation measured after 8 hrs by Western blot analysis; assay type: cell-based
HepG2 [31] = assay: Inhibition of TGF-beta-induced human CTGF promoter activity transiently transfected in human HepG2 cells assessed as reduction in alpha-smooth muscle actin expression preincubated at 700 nM for 1 hr before TGF-beta stimulation measured after 6 hrs by quantitative real-time PCR analysis; assay type: cell-based
HepG2 [32] = assay: Inhibition of TGF-beta-induced human CTGF promoter activity transiently transfected in human HepG2 cells assessed as CTGF expression preincubated at 700 nM for 1 hr before TGF-beta stimulation measured after 4 hrs by quantitative real-time PCR analysis; assay type: cell-based
HepG2 [33] = assay: Cytotoxicity against human HepG2 cells at 1.4 uM after 48 hrs by XTT assay; assay type: cell-based; conditions: hepg2, 48 h
MDA-MB-231 [34] = assay: Antimigratory activity against human MDA-MB-231 cells assessed as reduction in formation of tubule-like structures at 568 nM after 16 hrs by matrigel assay relative to control; assay type: functional; parameters: scale not given: the % may be the effect or the level left

Q: With C/C1=C\CCC(C)(O)C(C)OC(=O)Cc2c(Cl)c(O)cc(O)c2C1=O (stereo unspecified) as the compound, how does the inhibition (HepG2 [1]) read?
A: Dose-dependent effect

Q: And the IC50 [2]?
A: 136 nM

Q: And the inhibition (HepG2 [3])?
A: Active

Q: And the IC50 [4]?
A: 136 nM

Q: And the inhibition (HepG2 [5])?
A: Active

Q: What about the Activity (MDA-MB-231 [6]) of the same compound?
A: >70%

Q: And the inhibition (HepG2 [7])?
A: Active

Q: What about the inhibition (HepG2 [8]) of the same compound?
A: Active

Q: And the inhibition (HepG2 [9])?
A: Active

Q: What about the inhibition (HepG2 [10]) of the same compound?
A: Active

Q: What about the inhibition (HepG2 [11]) of the same compound?
A: Active

Q: And the Activity (MDA-MB-231 [12])?
A: Dose-dependent effect

Q: What does the source list for C[C@H]1CCC/C=C/C(=O)c2c(O)cc(O)cc2CC(=O)O1 [DEHYDROCURVULARIN]?
A: IC50 [2]: 4400 nM; IC50 [4]: 1700 nM

Q: Which results are given for C[C@H]1CCCCCC(=O)c2c(O)cc(O)cc2CC(=O)O1?
A: IC50 [2]: 86400 nM; IC50 [4]: 34200 nM

Q: Which Activity (MDA-MB-231 [13]) does the source give for c1ccc(-c2n[nH]cc2-c2ccnc3ccccc23)nc1 here?
A: 30%

Q: For C/C1=C\CCC(C)C(C)OC(=O)Cc2cc(O)cc(O)c2C1=O (stereo unspecified), which inhibition (HepG2 [14]) is on record?
A: Active

Q: What about the inhibition (HepG2 [1]) of the same compound?
A: Dose-dependent effect

Q: What about the IC50 [2] of the same compound?
A: 1800 nM

Q: What about the IC50 [4] of the same compound?
A: > 2200 nM

Q: What about the inhibition (HepG2 [15]) of the same compound?
A: Active

Q: What about the inhibition (HepG2 [16]) of the same compound?
A: inactive

Q: And the Activity (HepG2 [17])?
A: Non-toxic

Q: And the inhibition (HepG2 [18])?
A: Active

Q: And the Activity (MDA-MB-231 [19])?
A: Active

Q: What about the inhibition (HepG2 [20]) of the same compound?
A: Active

Q: What about the inhibition (HepG2 [21]) of the same compound?
A: Active

Q: And the inhibition (HepG2 [22])?
A: Active

Q: And the Activity (MDA-MB-231 [12])?
A: Dose-dependent effect

Q: And the inhibition (HepG2 [23])?
A: Active

Q: And the Activity (MDA-MB-231 [24])?
A: Non-toxic

Q: What does the source list for C/C1=C\CCC(C)C(C)OC(=O)Cc2c(Cl)c(O)cc(O)c2C1=O (stereo unspecified)?
A: inhibition (HepG2 [1]): Dose-dependent effect; IC50 [2]: 336 nM; inhibition (HepG2 [25]): Active; Activity (MDA-MB-231 [26]): Non-toxic; IC50 [4]: 210 nM; inhibition (HepG2 [27]): Active; inhibition (HepG2 [28]): Active; inhibition (HepG2 [29]): Active; inhibition (HepG2 [30]): inactive; inhibition (HepG2 [31]): Active; inhibition (HepG2 [32]): Active; Activity (MDA-MB-231 [12]): Dose-dependent effect; Activity (HepG2 [33]): Non-toxic; Activity (MDA-MB-231 [34]): >70%

— ChEMBL document CHEMBL3400091, “4-Dechloro-14-deoxy-oxacyclododecindione and 14-deoxy-oxacylododecindione, two inhibitors of inducible connective tissue growth factor expression from the imperfect fungus Exserohilum rostratum” (Bioorg Med Chem, 2015)
